From patent US9040663B2, “Melanocortin receptor-specific peptides” (AstraZeneca AB, priority 2009, dated 2015)
Like-named read-outs stand apart in the source and are kept apart here.

Columns and labels:
hMC4-R [1] = biological target: T1, hMC4-R (Homo sapiens (Human), UniProt P32245); assay: Competitive inhibition binding assay using [I125]-NDP-α-MSH, hMC4-R; details: membranes of HEK-293 cells expressing recombinant hMC4-R, read-out: MC4-R Ki
MC1-R = assay: Competitive inhibition binding assay using [I125]-NDP-α-MSH, MC1-R; details: membranes of B-16 mouse melanoma cells (endogenous MC1-R), in some instances HEK-293 hMC1-R
Summary of the method: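 Radioligand displacement on membranes from B-16 mouse melanoma cells (endogenous MC1-R) or HEK-293 expressing recombinant hMC1-R, with 0.1 nM [I125]-NDP-α-MSH and increasing peptide concentrations in HEPES pH 7.5 buffer, 60 min at 37° C.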

hMC4-R [2] = biological target: T1, hMC4-R; assay: High and low density hMC4-R functional assay (cAMP, HEK293-T-REx-MC4-R cells); type: cell-based; details: for Emax: NDP-α-MSH = 100%, read-out: Intrinsic Activity (%)
[3] = 0.1 ng/mL Doxycycline (low density hMC4-R system)
[4] = 10 ng/mL Doxycycline (high density hMC4-R system)

T1 sequence (P32245 whole entry): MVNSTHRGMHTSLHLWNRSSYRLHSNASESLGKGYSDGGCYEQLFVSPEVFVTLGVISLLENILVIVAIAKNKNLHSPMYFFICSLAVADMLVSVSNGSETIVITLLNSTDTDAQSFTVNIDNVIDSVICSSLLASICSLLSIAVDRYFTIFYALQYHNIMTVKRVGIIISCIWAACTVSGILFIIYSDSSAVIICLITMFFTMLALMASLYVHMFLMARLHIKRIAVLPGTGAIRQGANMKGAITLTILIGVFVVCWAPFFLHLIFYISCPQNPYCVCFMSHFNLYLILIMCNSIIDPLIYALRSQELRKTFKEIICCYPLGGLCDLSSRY

| SMILES | Ki (hMC4-R [1]) | Ki (MC1-R) | EC50 (hMC4-R [2]; [3]) | Emax (hMC4-R [2]; [3]) | EC50 (hMC4-R [2]; [4]) | Emax (hMC4-R [2]; [4]) |
| --- | --- | --- | --- | --- | --- | --- |
| CC(=O)N[C@@H](CCCNC(=N)N)C(=O)N[C@H]1CCC(=O)NCCC[C@@H](C(N)=O)NC(=O)[C@H](Cc2c[nH]c3ccccc23)NC(=O)[C@H](CCCNC(=N)N)NC(=O)[C@@H](Cc2cc(F)cc(F)c2)NC(=O)[C@H](CC(N)=O)NC1=O [Example 76, Ac-Arg-cyclo(Glu-Asn-D-Phe(3,4-diF)-Arg-Trp-Orn)-NH2] | 20 nM | 260 nM | 3 nM | 53% | 0.135 nM | 85% |
| CC(=O)N[C@@H](CCCNC(=N)N)C(=O)N[C@H]1CCC(=O)NCCC[C@@H](C(N)=O)NC(=O)[C@H](Cc2c[nH]c3ccccc23)NC(=O)[C@H](CCCNC(=N)N)NC(=O)[C@@H](Cc2ccccc2F)NC(=O)[C@@H]2CCCN2C1=O [Example 66, Ac-Arg-cyclo(Glu-Pro-D-Phe(2-F)-Arg-Trp-Orn)-NH2] | 6 nM | 95 nM | 5 nM | 32% | 0.265 nM | 88% |
| CC(=O)N[C@@H](CCCNC(=N)N)C(=O)N[C@H]1CCCNC(=O)CC[C@@H](C(N)=O)NC(=O)[C@H](Cc2c[nH]c3ccccc23)NC(=O)[C@H](CCCNC(=N)N)NC(=O)[C@@H](Cc2ccccc2F)NC(=O)[C@H](CC(N)=O)NC1=O [Example 71, Ac-Arg-cyclo(Orn-Asn-D-Phe(2-F)-Arg-Trp-Glu)-NH2] | 9 nM | 335 nM | 1 nM | 86% | 0.085 nM | 91% |
| CC(=O)N[C@@H](CCCNC(=N)N)C(=O)N[C@H]1CCC(=O)NCCC[C@@H](C(N)=O)NC(=O)[C@H](Cc2c[nH]c3ccccc23)NC(=O)[C@H](CCCNC(=N)N)NC(=O)[C@@H](Cc2cccc(Cl)c2)NC(=O)[C@@H]2C[C@@H](O)CN2C1=O [Example 37, Ac-Arg-cyclo(Glu-Hyp-D-Phe(3-Cl)-Arg-Trp-Orn)-NH2] | 2 nM | 430 nM |  | 6% | 0.55 nM | 90% |
| CC(=O)N[C@@H](CCCNC(=N)N)C(=O)N[C@H]1CCC(=O)NCCC[C@@H](C(N)=O)NC(=O)[C@H](Cc2c[nH]c3ccccc23)NC(=O)[C@H](CCCNC(=N)N)NC(=O)[C@@H](Cc2ccccc2Cl)NC(=O)[C@H](Cc2cccc(C(N)=O)c2)NC1=O [Example 48, Ac-Arg-cyclo(Glu-Phe(3-C(═O)—NH2)-D-Phe(2-Cl)-D-Phe-Arg-Trp-Orn)-NH2] | 15 nM | 545 nM |  | 6% | 4 nM | 93% |
| CC(=O)N[C@@H](CCCNC(=N)N)C(=O)N[C@H]1CCCNC(=O)CC[C@@H](C(N)=O)NC(=O)[C@H](Cc2c[nH]c3ccccc23)NC(=O)[C@H](CCCNC(=N)N)NC(=O)[C@@H](Cc2ccccc2C(F)(F)F)NC(=O)[C@H](CCC(N)=O)NC1=O [Example 115, Ac-Arg-cyclo(Orn-Gln-D-Phe(2-CF3)-Arg-Trp-Glu)-NH2] | 4 nM | 235 nM | 0.8 nM | 54% | 0.17 nM | 108% |
| CC(=O)N[C@H](CCCNC(=N)N)C(=O)N[C@H]1CCCNC(=O)CC[C@@H](C(N)=O)NC(=O)[C@H](Cc2c[nH]c3ccccc23)NC(=O)[C@H](CCCNC(=N)N)NC(=O)[C@@H](Cc2ccccc2F)NC(=O)[C@H](Cc2c[nH]cn2)NC1=O [Example 53, Ac-D-Arg-cyclo(Orn-His-D-Phe(2-F)-Arg-Trp-Glu)-NH2] | 0.95 nM | 0.75 nM | 0.13 nM | 86% | 0.13 nM | 90% |
| CC(=O)N[C@@H](CCCNC(=N)N)C(=O)N[C@H]1CCC(=O)NCCC[C@@H](C(N)=O)NC(=O)[C@H](Cc2c[nH]c3ccccc23)NC(=O)[C@H](CCCNC(=N)N)NC(=O)[C@@H](Cc2ccccc2Cl)NC(=O)[C@H](CCC(N)=O)NC1=O [Example 34, Ac-Arg-cyclo(Glu-Gln-D-Phe(2-Cl)-Arg-Trp-Orn)-NH2] | 7 nM | 128 nM | 1 nM | 79% |  | 97% |
| CC(=O)N[C@@H](CCCNC(=N)N)C(=O)N[C@H]1CCCNC(=O)CC[C@@H](C(N)=O)NC(=O)[C@H](Cc2c[nH]c3ccccc23)NC(=O)[C@H](CCCNC(=N)N)NC(=O)[C@@H](Cc2ccc(F)c(F)c2)NC(=O)[C@H](CC(N)=O)NC1=O [Example 75, Ac-Arg-cyclo(Orn-Asn-D-Phe(3,4-diF)-Arg-Trp-Glu)-NH2] | 3 nM | 190 nM | 0.65 nM | 43% | 0.125 nM | 87% |
| CC(=O)N[C@@H](CCCNC(=N)N)C(=O)N[C@H]1CCC(=O)NCCC[C@@H](C(N)=O)NC(=O)[C@H](Cc2c[nH]c3ccccc23)NC(=O)[C@H](CCCNC(=N)N)NC(=O)[C@@H](Cc2ccccc2C(F)(F)F)NC(=O)[C@H](CCN)NC1=O [Example 13, Ac-Arg-cyclo(Glu-Dab-D-Phe(2-CF3)-Arg-Trp-Orn)-NH2] | 0.6 nM | 3 nM | 0.125 nM | 85% | 0.06 nM | 96% |
| CC(=O)N[C@@H](CCCNC(=N)N)C(=O)N[C@H]1CCC(=O)NCCC[C@@H](C(N)=O)NC(=O)[C@H](Cc2c[nH]c3ccccc23)NC(=O)[C@H](CCCNC(=N)N)NC(=O)[C@@H](Cc2ccc(Cl)cc2)NC(=O)[C@H](CCN)NC1=O [Example 3, Ac-Arg-cyclo(Glu-Dab-D-Phe(4-Cl)-Arg-Trp-Orn)-NH2] | 0.08 nM | 0.3 nM | 0.07 nM | 28% | 0.16 nM | 100% |
| CC(=O)N[C@@H](CCCNC(=N)N)C(=O)N[C@H]1CCC(=O)NCCC[C@@H](C(=O)O)NC(=O)[C@H](Cc2c[nH]c3ccccc23)NC(=O)[C@H](CCCNC(=N)N)NC(=O)[C@@H](Cc2ccccc2Cl)NC(=O)[C@H](CCCN)NC1=O [Example 49, Ac-Arg-cyclo(Glu-Orn-D-Phe(2-Cl)-Arg-Trp-Orn)-OH] | 8 nM | 8 nM | 2 nM | 74% | 0.235 nM | 93% |
| CC(=O)N[C@@H](CCCNC(=N)N)C(=O)N[C@H]1CCC(=O)NCCC[C@@H](C(N)=O)NC(=O)[C@H](Cc2c[nH]c3ccccc23)NC(=O)[C@H](CCCNC(=N)N)NC(=O)[C@@H](Cc2ccccc2C(F)(F)F)NC(=O)[C@H](CCC(N)=O)NC1=O [Example 114, Ac-Arg-cyclo(Glu-Gln-D-Phe(2-CF3)-Arg-Trp-Orn)-NH2] | 8 nM | 93 nM | 1 nM | 73% |  | 117% |
| CC(=O)N[C@@H](CCCNC(=N)N)C(=O)N[C@H]1CCC(=O)NCCC[C@@H](C(N)=O)NC(=O)[C@H](Cc2c[nH]c3ccccc23)NC(=O)[C@H](CCCNC(=N)N)NC(=O)[C@@H](Cc2ccccc2Cl)NC(=O)[C@H]([C@@H](C)OCc2ccccc2)NC1=O [Example 63, Ac-Arg-cyclo(Glu-Thr(Bzl)-D-Phe(2-Cl)-Arg-Trp-Orn)-NH2] | 0.35 nM | 12 nM | 0.37 nM | 30% | 0.157 nM | 93% |
| CC(=O)N[C@@H](CCCNC(=N)N)C(=O)N[C@H]1CCC(=O)NCCC[C@@H](C(N)=O)NC(=O)[C@H](Cc2c[nH]c3ccccc23)NC(=O)[C@H](CCCNC(=N)N)NC(=O)[C@@H](Cc2cccc(C#N)c2)NC(=O)[C@H](CCN)NC1=O [Example 6, Ac-Arg-cyclo(Glu-Dab-D-Phe(3-CN)-Arg-Trp-Orn)-NH2] | 33 nM | 43 nM | 37 nM | 29% | 2 nM | 100% |
| CC(=O)NCC[C@@H]1NC(=O)[C@@H](NC(=O)[C@H](CCCNC(=N)N)NC(C)=O)CCC(=O)NCCC[C@@H](C(N)=O)NC(=O)[C@H](Cc2c[nH]c3ccccc23)NC(=O)[C@H](CCCNC(=N)N)NC(=O)[C@@H](Cc2ccccc2Cl)NC1=O [Example 56, Ac-Arg-cyclo(Glu-Dab(Acetyl)-D-Phe(2-Cl)-Arg-Trp-Orn)-NH2] | 11 nM | 30 nM | 5 nM | 41% | 0.3 nM | 98% |
| CC(=O)N[C@@H](CCCNC(=N)N)C(=O)N[C@H]1CCC(=O)NCCC[C@@H](C(N)=O)NC(=O)[C@H](Cc2c[nH]c3ccccc23)NC(=O)[C@H](CCCNC(=N)N)NC(=O)[C@@H](Cc2ccc(F)cc2)NC(=O)[C@H](CCS(C)(=O)=O)NC1=O [Example 68, Ac-Arg-cyclo(Glu-Met(O2)-D-Phe(4-F)-Arg-Trp-Orn)-NH2] | 2 nM | 33 nM | 0.85 nM | 55% | 0.075 nM | 91% |
| CC(=O)N[C@H](CCCNC(=N)N)C(=O)N[C@H]1CC(=O)NCCCC[C@@H](C(N)=O)NC(=O)[C@H](Cc2c[nH]c3ccccc23)NC(=O)[C@H](CCCNC(=N)N)NC(=O)[C@@H](Cc2ccccc2Cl)NC(=O)[C@H](CCC(N)=O)NC1=O [Example 79, Ac-D-Arg-cyclo(Asp-Gln-D-Phe(2-Cl)-Arg-Trp-Lys)-NH2] | 10 nM | 395 nM | 4 nM | 48% | 0.2 nM | 85% |
| CC(=O)N[C@@H](CCCNC(=N)N)C(=O)N[C@H]1CCC(=O)NCCC[C@@H](C(N)=O)NC(=O)[C@H](Cc2c[nH]c3ccccc23)NC(=O)[C@H](CCCNC(=N)N)NC(=O)[C@@H](Cc2cccc(F)c2)NC(=O)[C@H](CCN)NC1=O [Example 10, Ac-Arg-cyclo(Glu-Dab-D-Phe(3-F)-Arg-Trp-Orn)-NH2] | 2 nM | 2 nM | 0.45 nM | 77% | 0.17 nM | 94% |
